For the assay, the system named is MDA-MB-468 breast. In words: NCI-60 cell line screen, 48 h.

Each structure is given as a SMILES string. Where “and” joins values, the source holds several entries; their conditions need not be identical. Equal values may be shown once.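 Results reflect a 48-hour exposure of cells in 96-well plates to compound at five concentrations. At the GI50, growth is halved. Definition used: TGI = concentration required for complete inhibition of growth.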 Where a SMILES comes first, the peptide text is derived from it. [ ]: non-standard residue; d: D form. The star is where a group is joined. ξ: configuration not given here. dIva = CC[C@@](C)(N)C(=O)O; Aib = CC(C)(N)C(=O)O; ξP = O=C(O)C1CCCN1; βAla = NCCC(=O)O; X5 = OCN*

As for `Nc1nc(N)c(-c2ccc(Cl)cc2)c(/C=C/c2ccc([N+](=O)[O-])cc2)n1`, the GI50 is 3.02 µM and the TGI was above 100 µM.
For `CC(=O)Nc1nc(C)c(-c2cc3c(c(S(C)(=O)=O)c2)C(=O)N([C@@H](C)C2CC2)C3)s1` the same measures were 31.6 µM and above 100 µM.
In the same order, the values of `O=C1/C(=C/c2cccc(F)c2)CN(C(=O)C(Cl)Cl)C/C1=C\c1cccc(F)c1` are 0.207 µM and 0.529 µM.
For `COc1ccc(-c2cc3c(N)ncnc3o2)cc1`, the GI50 is above 25 µM and the TGI is above 25 µM.
Consider `NC(N)=N/N=C/c1ccc(Br)cc1`, for which the GI50 is 1.5 µM and the TGI was determined as 4.81 µM.
Turning to `CNCC1CCn2c(c(C3=C(c4cn(C)c5ccccc45)C(=O)NC3=O)c3ccccc32)C1` (stereo unspecified), the GI50 is 2.62 µM and the TGI came to 6.58 µM.
In the same order, the values of `CCC(=O)OCN1C(=O)C=CC1=O` are 14.1 µM and 32.4 µM.
In the same order, the values of `CCCCCCCCCCCCCCCC(N)c1ccccc1` (stereo unspecified) are 1.58 µM and 3.14 µM.
On to `O=S1(=O)C=C(c2ccccc2)C(c2ccccc2)=C1`, for which the GI50 was 1.14 µM and the TGI came to 2.46 µM.
For `COC(=O)[C@]1(C)CC[C@]2(C)CC[C@]3(C)C(=CC(=O)[C@@H]4[C@@]5(C)CCC(=O)NC(C)(C)[C@@H]5CC[C@]43C)[C@@H]2C1`, the GI50 was 18.3 µM and the TGI stood at 64.2 µM.
For the compound `CCC(=O)Oc1ccc(/C=N/NC(N)=S)nc1`, the GI50 is 1.97 µM and the TGI stood at 7.22 µM.
In the case of `NC(N)=NC(N)=NCc1ccco1`, the GI50 is 158 µM and 36.8 µM; the TGI amounted to 500 µM.
With `COc1ccc(-c2c(C#N)cnc(N)c2-c2nc3cc(C)c(C)cc3[nH]2)cc1`, the GI50 is 6.22 µM and the TGI turned out to be 23.1 µM.
For `C[C@H](c1ccc(Cl)cc1[N+](=O)[O-])N1C(=O)c2cc(I)ccc2NC(=O)[C@H]1c1ccc(Cl)cc1` the same measures were 16.6 µM and above 100 µM.
For `CC(CNc1nc(Nc2ccc(Cl)c(Cl)c2)nc(C(Cl)(Cl)Cl)n1)N(C)C` (stereo unspecified) the same measures were 1.47 µM and 2.85 µM.
In the same order, the values of `O=C1C=C(OCC=C(Cl)Cl)C(=O)c2ccccc21` are 1.05 µM and 3.6 µM.
Take `CC1(C)N=C(N)N=C(N)N1c1ccc(CCC(=O)Nc2cccc(S(=O)(=O)F)c2)cc1`: the GI50 was 1.31 µM and the TGI is above 100 µM.
For `CN(C)CCNC(=O)c1ccc(-c2nc3ccc4[nH]ncc4c3c3c2COCC3)cc1` the same measures were 0.169 µM and 0.36 µM.
Consider `CN1C(=O)C(C)(C)Oc2c(-c3cn(C)c(=O)c4[nH]ccc34)cc(S(C)(=O)=O)cc21`, for which the GI50 is 0.551 µM and the TGI turned out to be 3.7 µM.
Turning to `CN1CCN(Cc2ccc(NC(=O)c3[nH]ncc3Nc3cc(OC4CCCC4)ncn3)cc2)CC1`, the GI50 is 1.98 µM and the TGI was determined as 4.77 µM.
For the compound `CC(=O)N1c2ccc(-c3ccc(C(=O)O)cc3)cc2[C@H](Nc2ccc(Cl)cc2)C[C@@H]1C`, the GI50 was 0.131 µM and the TGI was 17.3 µM.
For `CC[C@@](C)(NC(=O)[C@H](C)NC(=O)CCNC(=O)C(C)(C)NC(=O)[C@H](C)NC(=O)[C@@H]1CCCN1C(=O)[C@@](C)(CC)NC(=O)[C@H](Cc1ccccc1)NC(=O)C1CCCN1C(=O)C(C)(C)NC(=O)C1CCCN1C(=O)C(C)(C)NC(C)=O)C(=O)NCCC(=O)N[C@@H](CC(C)C)C(=O)NC(C)(C)C(=O)NCCC(=O)N[C@@H](CC(C)C)C(=O)NC(C)(C)C(=O)NC(C)(C)C(=O)N[C@@H](CC(C)C)C(=O)NCCC(=O)NCO` (stereo partly specified) (Ac-[Aib][ξP][Aib][ξP]F[dIva]PA[Aib][βAla]A[dIva][βAla]L[Aib][βAla]L[Aib][Aib]L[βAla]-X5) the same measures were 0.0528 µM and 0.163 µM.
For `COc1ccc(/C=C/C(=O)/C=C(/C=C/c2ccc(OC)c(OC)c2OC)OB(F)F)c(OC)c1OC` the same measures were 2.57 µM and 9.65 µM.

These data come from PubChem BioAssay (NCI).
